The values below come from PubChem BioAssay AID248 (DTP/NCI, 2004).

The test system of this assay is L1210 leukemia ip in BDF1 mice, survival T/C. Nature of the assay: NCI In Vivo Anticancer Drug Screen. Data for tumor model L1210 Leukemia (intraperitoneal) in B6D2F1 (BDF1) mice. Particulars: higher = longer survival. A digest of the protocol:
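Tumor cells were implanted, animals were treated, and survival was followed. The result divides the treated measurement by the vehicle-control measurement.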

The mark [1] stands for this setting: endpoint: mean survival time, dose: 100.0 mg/kg/injection, schedule: Q01DX001 (ip), vehicle: saline.
[2] abbreviates: endpoint: mean survival time, dose: 200.0 mg/kg/injection, schedule: Q01DX001 (ip), vehicle: saline.
The mark [3] stands for this setting: endpoint: mean survival time, dose: 400.0 mg/kg/injection, schedule: Q01DX001 (ip), vehicle: saline.

Where “and” joins values, the source holds several entries; their conditions need not be identical. Equal values may be shown once. Inconclusive results and toxic doses are left out.

In the case of `NC(=O)N(CCCl)N=O`, the T/C is, setting by setting: (endpoint: mean survival time, dose: 0.06 mg/kg/injection, schedule: Q#A X Z (oral), vehicle: saline) 123 % of control; (endpoint: mean survival time, dose: 0.12 mg/kg/injection, schedule: Q01DX010 (iv), vehicle: saline) 98 % of control; (endpoint: mean survival time, dose: 0.13 mg/kg/injection, schedule: Q01DX Z (oral), vehicle: saline) 118 % of control; (endpoint: mean survival time, dose: 0.19 mg/kg/injection, schedule: Q03DX Z (oral), vehicle: saline) 112 % of control; (endpoint: mean survival time, dose: 0.2 mg/kg/injection, schedule: Q01DX Z (sc), vehicle: methylcellulose (MC)) 101 % of control; (endpoint: mean survival time, dose: 0.25 mg/kg/injection, schedule: Q01DX010 (iv), vehicle: saline) 118 % of control. In addition, the T/C runs as follows: (endpoint: mean survival time, dose: 0.25 mg/kg/injection, schedule: Q01DX Z (oral), vehicle: saline) 182 % of control; (endpoint: mean survival time, dose: 0.25 mg/kg/injection, schedule: Q#A X Z (oral), vehicle: saline) 255 % of control; (endpoint: mean survival time, dose: 0.38 mg/kg/injection, schedule: Q03DX Z (oral), vehicle: saline) 121 % of control; (endpoint: mean survival time, dose: 0.4 mg/kg/injection, schedule: Q01DX Z (ip), vehicle: carboxymethylcellulose (CMC)) 157 % of control and 201 % of control; (endpoint: mean survival time, dose: 0.4 mg/kg/injection, schedule: Q01DX Z (ip), vehicle: methylcellulose (MC)) 151 % of control; (endpoint: mean survival time, dose: 0.4 mg/kg/injection, schedule: Q01DX Z (sc), vehicle: methylcellulose (MC)) 98 % of control and 101 % of control. Also, the T/C was 105 % of control (endpoint: mean survival time, dose: 0.44 mg/kg/injection, schedule: Q07DX Z (oral), vehicle: saline); 159 % of control and 163 % of control and 176 % of control (endpoint: mean survival time, dose: 0.5 mg/kg/injection, schedule: Q01DX009 (ip), vehicle: saline); 266 % of control (endpoint: mean survival time, dose: 0.5 mg/kg/injection, schedule: Q01DX Z (oral), vehicle: saline); 170 % of control and 197 % of control (endpoint: mean survival time, dose: 0.6 mg/kg/injection, schedule: Q01DX Z (ip), vehicle: carboxymethylcellulose (CMC)); 166 % of control and 171 % of control (endpoint: mean survival time, dose: 0.6 mg/kg/injection, schedule: Q01DX Z (ip), vehicle: methylcellulose (MC)); 98 % of control and 101 % of control (endpoint: mean survival time, dose: 0.6 mg/kg/injection, schedule: Q01DX Z (sc), vehicle: methylcellulose (MC)). For the same compound, the T/C is 124 % of control (endpoint: mean survival time, dose: 0.88 mg/kg/injection, schedule: Q07DX Z (oral), vehicle: saline); 205 % of control and 257 % of control (endpoint: mean survival time, dose: 0.9 mg/kg/injection, schedule: Q01DX Z (ip), vehicle: carboxymethylcellulose (CMC)); 181 % of control and 250 % of control (endpoint: mean survival time, dose: 0.9 mg/kg/injection, schedule: Q01DX Z (ip), vehicle: methylcellulose (MC)); 117 % of control (endpoint: mean survival time, dose: 0.9 mg/kg/injection, schedule: Q01DX Z (oral), vehicle: carboxymethylcellulose (CMC)); 98 % of control and 101 % of control (endpoint: mean survival time, dose: 0.9 mg/kg/injection, schedule: Q01DX Z (sc), vehicle: methylcellulose (MC)); 202 % of control and 222 % of control and 253 % of control (endpoint: mean survival time, dose: 1.0 mg/kg/injection, schedule: Q01DX009 (ip), vehicle: saline). For the same compound, the T/C reads like this: (endpoint: mean survival time, dose: 1.0 mg/kg/injection, schedule: Q01DX010 (iv), vehicle: saline) 215 % of control; (endpoint: mean survival time, dose: 1.35 mg/kg/injection, schedule: Q01DX Z (ip), vehicle: carboxymethylcellulose (CMC)) 176 % of control and 227 % of control; (endpoint: mean survival time, dose: 1.5 mg/kg/injection, schedule: Q03DX Z (oral), vehicle: saline) 234 % of control; (endpoint: mean survival time, dose: 1.6 mg/kg/injection, schedule: Q01DX Z (oral), vehicle: methylcellulose (MC)) 167 % of control; (endpoint: mean survival time, dose: 1.75 mg/kg/injection, schedule: Q07DX Z (oral), vehicle: saline) 178 % of control; (endpoint: mean survival time, dose: 1.8 mg/kg/injection, schedule: Q01DX Z (oral), vehicle: carboxymethylcellulose (CMC)) 102 % of control and 117 % of control. Moreover, the T/C by setting is: (endpoint: mean survival time, dose: 2.0 mg/kg/injection, schedule: Q01DX009 (ip), vehicle: saline) 219 % of control and 317 % of control and 319 % of control; (endpoint: mean survival time, dose: 2.0 mg/kg/injection, schedule: Q01DX010 (iv), vehicle: saline) 123 % of control; (endpoint: mean survival time, dose: 3.5 mg/kg/injection, schedule: Q01DX Z (oral), vehicle: carboxymethylcellulose (CMC)) 114 % of control; (endpoint: mean survival time, dose: 3.5 mg/kg/injection, schedule: Q07DX Z (oral), vehicle: saline) 266 % of control; (endpoint: mean survival time, dose: 3.6 mg/kg/injection, schedule: Q01DX001 (ip), vehicle: saline) 239 % of control and 271 % of control and 91 % of control; (endpoint: mean survival time, dose: 4.0 mg/kg/injection, schedule: Q01DX009 (ip), vehicle: saline) 111 % of control and 113 % of control. Further, the T/C was 194 % of control (endpoint: mean survival time, dose: 7.0 mg/kg/injection, schedule: Q01DX Z (oral), vehicle: carboxymethylcellulose (CMC)); 265 % of control and 303 % of control (endpoint: mean survival time, dose: 7.2 mg/kg/injection, schedule: Q01DX001 (ip), vehicle: saline); 111 % of control (endpoint: mean survival time, dose: 14.0 mg/kg/injection, schedule: Q01DX Z (oral), vehicle: carboxymethylcellulose (CMC)); 101 % of control (endpoint: mean survival time, dose: 25.0 micrograms/kg/injection, schedule: Q01DX Z (oral), vehicle: steriod suspending solution); 104 % of control (endpoint: mean survival time, dose: 50.0 micrograms/kg/injection, schedule: Q01DX Z (oral), vehicle: steriod suspending solution); 115 % of control (endpoint: mean survival time, dose: 100.0 micrograms/kg/injection, schedule: Q01DX Z (oral), vehicle: steriod suspending solution). The T/C runs as follows: (endpoint: mean survival time, dose: 110.0 micrograms/kg/injection, schedule: Q01DX Z (sc), vehicle: steriod suspending solution) 102 % of control; (endpoint: mean survival time, dose: 200.0 micrograms/kg/injection, schedule: Q01DX Z (oral), vehicle: steriod suspending solution) 165 % of control; (endpoint: mean survival time, dose: 220.0 micrograms/kg/injection, schedule: Q01DX Z (sc), vehicle: steriod suspending solution) 105 % of control; (endpoint: mean survival time, dose: 450.0 micrograms/kg/injection, schedule: Q01DX Z (sc), vehicle: steriod suspending solution) 124 % of control; (endpoint: median survival time, dose: 0.5 mg/kg/injection, schedule: Q01DX009 (ip), vehicle: saline) 162 % of control; (endpoint: median survival time, dose: 1.0 mg/kg/injection, schedule: Q01DX009 (ip), vehicle: saline) 206 % of control. Moreover, the T/C reads like this: (endpoint: median survival time, dose: 2.0 mg/kg/injection, schedule: Q01DX009 (ip), vehicle: saline) 181 % of control; (endpoint: median survival time, dose: 4.0 mg/kg/injection, schedule: Q01DX009 (ip), vehicle: saline) 112 % of control.
For the compound `C=C(C)CC1(CC)C(=O)NC(=S)NC1=O`, the T/C is 96 % of control (endpoint: mean survival time, dose: 100.0 mg/kg/injection, schedule: Q04DX003 (ip), vehicle: saline with Tween-80) and 98 % of control (endpoint: mean survival time, dose: 200.0 mg/kg/injection, schedule: Q04DX003 (ip), vehicle: saline with Tween-80).
Regarding `CC1NNC(=O)C1c1ccc([N+](=O)[O-])cc1` (configuration not stated), the T/C runs as follows: under setting [1], 94 % of control; under setting [2], 94 % of control; under setting [3], 95 % of control.
Consider `CCCCOC(=O)/C(=C\c1cccc(OC)c1)NC(=O)c1ccccc1`, for which the T/C is 92 % of control (endpoint: mean survival time, dose: 50.0 mg/kg/injection, schedule: Q01DX009 (ip), vehicle: other); 89 % of control (endpoint: mean survival time, dose: 100.0 mg/kg/injection, schedule: Q01DX009 (ip), vehicle: other); 100 % of control and 91 % of control (endpoint: mean survival time, dose: 200.0 mg/kg/injection, schedule: Q01DX009 (ip), vehicle: other); 88 % of control (endpoint: mean survival time, dose: 400.0 mg/kg/injection, schedule: Q01DX009 (ip), vehicle: other).
Regarding `CN(C)CCC(C=O)(CCN(C)C)c1cccc2ccccc12`, the T/C by setting is: (endpoint: mean survival time, dose: 25.0 mg/kg/injection, schedule: Q04DX002 (ip), vehicle: saline with Tween-80) 116 % of control; (endpoint: mean survival time, dose: 50.0 mg/kg/injection, schedule: Q04DX002 (ip), vehicle: saline with Tween-80) 94 % of control; (endpoint: mean survival time, dose: 100.0 mg/kg/injection, schedule: Q04DX002 (ip), vehicle: saline with Tween-80) 94 % of control.
As to `COC(=O)OCC1OC(OC(C)=O)C2OC(=O)OC12` (configuration not stated), the T/C runs as follows: under setting [1], 97 % of control; under setting [2], 97 % of control; under setting [3], 97 % of control.
With `CC(=O)Nc1ccc(NC(=S)Nc2ccc(NC(C)=O)cc2)cc1`, the T/C (endpoint: mean survival time, dose: 50.0 mg/kg/injection, schedule: Q01DX009 (ip), vehicle: Klucel (hydroxypropylcellulose) (HPC)) is 101 % of control; the T/C (endpoint: mean survival time, dose: 100.0 mg/kg/injection, schedule: Q01DX009 (ip), vehicle: Klucel (hydroxypropylcellulose) (HPC)) was 104 % of control; the T/C (endpoint: mean survival time, dose: 100.0 mg/kg/injection, schedule: Q04DX003 (ip), vehicle: Klucel (hydroxypropylcellulose) (HPC)) was 97 % of control; the T/C (endpoint: mean survival time, dose: 200.0 mg/kg/injection, schedule: Q04DX003 (ip), vehicle: Klucel (hydroxypropylcellulose) (HPC)) was 93 % of control.
Regarding `SC12CC3CC(CC(C3)C1)C2`, the T/C is 87 % of control (endpoint: mean survival time, dose: 100.0 mg/kg/injection, schedule: Q04DX002 (ip), vehicle: Klucel (hydroxypropylcellulose) (HPC)); 94 % of control (endpoint: mean survival time, dose: 200.0 mg/kg/injection, schedule: Q04DX002 (ip), vehicle: Klucel (hydroxypropylcellulose) (HPC)); 98 % of control (endpoint: mean survival time, dose: 400.0 mg/kg/injection, schedule: Q04DX002 (ip), vehicle: Klucel (hydroxypropylcellulose) (HPC)).
